Results from the supplement of paper PMC13380429.

Columns and labels:
[1] = system: A549-ACE2 infected with SARS-CoV-2; assay: cell count relative to DMSO; higher = less toxic; conditions: 24 h
Caco-2 [2] = assay: cell viability relative to DMSO; higher = less toxic; conditions: 72 h
Calu-3 [3] = assay: as above; conditions: 72 h
HepG2 [4] = assay: as above; conditions: 72 h
U2OS [5] = assay: as above; conditions: 72 h
Vero E6 [6] = assay: as above; conditions: 72 h
[7] = system: A549-ACE2 infected with SARS-CoV-2; assay: SARS-CoV-2 infection rate relative to DMSO; higher = more infection; conditions: 24 h
A549-ACE2 [8] = assay: phospholipidosis EC50; higher = less potent phospholipidosis inducer
A549-ACE2 [9] = assay: drug-induced phospholipidosis relative to tamoxifen; higher = more phospholipidosis
[10] = system: A549-ACE2 infected with SARS-CoV-2; assay: morphology score (similarity to uninfected cells); higher = more like uninfected cells; conditions: 24 h
Caco-2 [11] = assay: relative viability EC50 (midpoint between 100% and the lowest measured viability); higher = less toxic; conditions: 72 h
Calu-3 [12] = assay: as above; conditions: 72 h
HepG2 [13] = assay: as above; conditions: 72 h
U2OS [14] = assay: as above; conditions: 72 h
Vero E6 [15] = assay: as above; conditions: 72 h
Caco-2 [16] = assay: drug sensitivity score (DSS) for viability; higher = more toxic; extreme values may be limits of the assay; conditions: 72 h
Calu-3 [17] = assay: as above; conditions: 72 h
HepG2 [18] = assay: as above; conditions: 72 h
U2OS [19] = assay: as above; conditions: 72 h
Vero E6 [20] = assay: as above; conditions: 72 h

O=C(NCCN1CCC2(CC1)C(=O)NCN2c1cccc(F)c1)c1ccc(F)c(F)c1 [ML298]
Conditions	SARS-CoV-2 infection rate [%]	cell count [%]	cell viability [%]	morphology score	phospholipidosis EC50 [µM]
A549-ACE2 [8], 24 h	–	–	–	–	7.34
A549-ACE2 [8], 48 h	–	–	–	–	9.19
A549-ACE2 [8], 72 h	–	–	–	–	8.25
Caco-2 [2], 1 nM	–	–	98	–	–
Caco-2 [2], 10 nM	–	–	99.7	–	–
Caco-2 [2], 100 nM	–	–	95.2	–	–
Caco-2 [2], 1000 nM	–	–	91.1	–	–
Caco-2 [2], 10000 nM	–	–	89.9	–	–
Calu-3 [3], 1 nM	–	–	96.7	–	–
Calu-3 [3], 10 nM	–	–	104	–	–
Calu-3 [3], 100 nM	–	–	101	–	–
Calu-3 [3], 1000 nM	–	–	93.9	–	–
Calu-3 [3], 10000 nM	–	–	89.1	–	–
HepG2 [4], 1 nM	–	–	97.3	–	–
HepG2 [4], 10 nM	–	–	103	–	–
HepG2 [4], 100 nM	–	–	101	–	–
HepG2 [4], 1000 nM	–	–	97.7	–	–
HepG2 [4], 10000 nM	–	–	89.1	–	–
U2OS [5], 1 nM	–	–	103	–	–
U2OS [5], 10 nM	–	–	102	–	–
U2OS [5], 100 nM	–	–	104	–	–
U2OS [5], 1000 nM	–	–	98.5	–	–
U2OS [5], 10000 nM	–	–	94.2	–	–
Vero E6 [6], 1 nM	–	–	101	–	–
Vero E6 [6], 10 nM	–	–	105	–	–
Vero E6 [6], 100 nM	–	–	102	–	–
Vero E6 [6], 1000 nM	–	–	107	–	–
Vero E6 [6], 10000 nM	–	–	89.8	–	–
[1], 0.3 µM	–	102	–	–	–
[1], 3 µM	–	102	–	–	–
[1], 10 µM	–	116	–	–	–
[1], 30 µM	–	95	–	–	–
[7], 0.3 µM	100	–	–	–	–
[7], 3 µM	83	–	–	–	–
[7], 10 µM	32	–	–	–	–
[7], 30 µM	25	–	–	–	–
[10], 0.3 µM	–	–	–	-0.08	–
[10], 3 µM	–	–	–	0.43	–
[10], 10 µM	–	–	–	0.74	–
[10], 30 µM	–	–	–	0.22	–

drug-induced phospholipidosis [%], A549-ACE2 [9]
Conditions	0.3 µM	0.833333 µM	3.33333 µM	6.66667 µM	10 µM	30 µM
24 h	1.51	2.03	17.2	46.9	89.3	113
48 h	7.03	7.88	17.8	36.7	79.7	127
72 h	6.97	7.75	18.7	39.7	90.5	–

Conditions	drug sensitivity score	relative viability EC50 [µM]
Caco-2 [11]	–	> 10
Caco-2 [16]	0	–
Calu-3 [12]	–	> 10
Calu-3 [17]	0.1	–
HepG2 [13]	–	> 10
HepG2 [18]	0	–
U2OS [14]	–	> 10
U2OS [19]	0	–
Vero E6 [15]	–	> 10
Vero E6 [20]	0	–

Nc1ncccc1-c1nc2ccc(-c3ccccc3)nc2n1-c1ccc(C2(N)CCC2)cc1 [ARQ-092]
Conditions	SARS-CoV-2 infection rate [%]	cell count [%]	cell viability [%]	morphology score	phospholipidosis EC50 [µM]
A549-ACE2 [8], 24 h	–	–	–	–	3.22
A549-ACE2 [8], 48 h	–	–	–	–	1.25
Caco-2 [2], 1 nM	–	–	94.7	–	–
Caco-2 [2], 10 nM	–	–	97.9	–	–
Caco-2 [2], 100 nM	–	–	87.4	–	–
Caco-2 [2], 1000 nM	–	–	68	–	–
Caco-2 [2], 10000 nM	–	–	52.8	–	–
Calu-3 [3], 1 nM	–	–	98.3	–	–
Calu-3 [3], 10 nM	–	–	108	–	–
Calu-3 [3], 100 nM	–	–	95.7	–	–
Calu-3 [3], 1000 nM	–	–	76.3	–	–
Calu-3 [3], 10000 nM	–	–	8.8	–	–
HepG2 [4], 1 nM	–	–	102	–	–
HepG2 [4], 10 nM	–	–	95.2	–	–
HepG2 [4], 100 nM	–	–	90.4	–	–
HepG2 [4], 1000 nM	–	–	72.4	–	–
HepG2 [4], 10000 nM	–	–	51.4	–	–
U2OS [5], 1 nM	–	–	99.8	–	–
U2OS [5], 10 nM	–	–	99.4	–	–
U2OS [5], 100 nM	–	–	102	–	–
U2OS [5], 1000 nM	–	–	91.9	–	–
U2OS [5], 10000 nM	–	–	68.2	–	–
Vero E6 [6], 1 nM	–	–	95.1	–	–
Vero E6 [6], 10 nM	–	–	102	–	–
Vero E6 [6], 100 nM	–	–	86.5	–	–
Vero E6 [6], 1000 nM	–	–	82.2	–	–
Vero E6 [6], 10000 nM	–	–	84.7	–	–
[1], 0.3 µM	–	96	–	–	–
[1], 3 µM	–	98	–	–	–
[1], 10 µM	–	94	–	–	–
[1], 30 µM	–	46	–	–	–
[7], 0.3 µM	107	–	–	–	–
[7], 3 µM	51	–	–	–	–
[7], 10 µM	25	–	–	–	–
[7], 30 µM	78	–	–	–	–
[10], 0.3 µM	–	–	–	-0.1	–
[10], 3 µM	–	–	–	0.72	–
[10], 10 µM	–	–	–	0.54	–
[10], 30 µM	–	–	–	-0.21	–

drug-induced phospholipidosis [%], A549-ACE2 [9]
Conditions	0.3 µM	0.833333 µM	3.33333 µM	6.66667 µM	10 µM	30 µM
24 h	1.77	12	89.4	198	175	50.3
48 h	3.37	9.82	86.6	–	138	36.8
72 h	2.32	7.77	–	–	–	–

Conditions	drug sensitivity score	relative viability EC50 [µM]
Caco-2 [16]	7.1	–
Calu-3 [12]	–	1.52
Calu-3 [17]	8.7	–
HepG2 [18]	6.1	–
U2OS [19]	2.7	–
Vero E6 [15]	–	> 10
Vero E6 [20]	3.3	–
